{"source": "patent US10765638B2", "about": "“Particle formulation with polycation complex” (Yale University, priority 2017, dated 2020)", "key": {"[1]": {"test_system": "SKMG3 cells", "assay": "Phospho-γH2AX foci formation after radiation", "assay_type": "cell-based, human", "details": "2 hours after 4 Gy, 10 μM NGI-1", "experimental": "To determine histone H2AX phosphorylation (γH2AX), cells were cultured on glass cover slips and pre-treated with either vehicle or NGI-1 for 48 hours followed by radiation treatment. Samples were fixed with 4% neutral-buffered formaldehyde, washed (0.1% triton in PBS for 30 minutes) and incubated for 1 hour with protein-blocking solution (PBS containing 10% normal goat-horse serum; Sigma-Aldrich, Saint Louis, Mich., US). Next, the slides were incubated with primary anti-phospho-histone γH2AX S139 (1:500, Millipore-Upstate, Billerica, Mass., US) followed by incubation with secondary antibody Alexa Fluor 555-conjugated goat anti-mouse IgG (1:750, Molecular probes/Invitrogen, Carlsbad, Calif., US), for 1 hour at room temperature. Nuclei were stained using DAPI containing vectashield mounting solution (Vector Labs). Confocal cellular images were captured with an inverted Zeiss LSM 510 Pascal laser confocal microscope (C. Zeiss, Jenna, Germany), using a 63/1.4 plan-apochromat objective. Five randomly selected fields s per slide were analyzed. Cells were counted using the ImageJ program, public domain Java image processing software."}, "[2]": {"test_system": "CD8-EGFR", "assay": "Western blot of CD8-EGFR phosphorylation in SKMG3-CD8-EGFR cells", "assay_type": "cell-based, human", "details": "SKMG3 cells with stable expression of the CD8-EGFR", "experimental": "The CD8 cDNA was a gift from Paula Kavathas (Yale University). The CD8-EGFR was constructed according to a strategy that generated a constitutively active IGF-1R (24). The extracellular domain of CD8 was PCR amplified with a 5′ XbaI and 3′ SalI restriction site and cloned in-frame with the intracellular kinase domain of EGFR using the pDCB5-EGFR plasmid. SKMG3-CD8-EGFR cells were generated by Lipofectamine (Life Technologies) transfection of the plasmid followed by selection with 500 μg/ml G418."}, "[3]": {"test_system": "T98G cells", "assay": "Cell cycle distribution by flow cytometry", "assay_type": "cell-based", "experimental": "(§1) Cell cycle distribution was determined following treatment with vehicle, radiation and/or 10 uM NGI-1. Cells were trypsinized and centrifuged, washed once with ice-cold PBS, fixed with ice-cold 70% ethanol and stored overnight at −20° C. After washing twice with PBS, they were incubated for 30 minutes at room temperature in 200 μL of Guava Cell Cycle Reagent (Guava Technologies). Cytofluorometric acquisitions were performed on a LSRII cytometer (BD Biosciences). First-line analysis was performed with FlowJo software, upon gating of the events characterized by normal forward and side scatter parameters and discrimination of doublets in a FSC-A vs. FSC-H bivariate plot. Approximately 50,000 cells were analyzed per experiment."}, "[4]": {"test_system": "U251 cells", "assay": "Cell cycle distribution by flow cytometry", "assay_type": "cell-based", "experimental": "as §1"}, "[5]": {"test_system": "D54 cells", "assay": "Cell cycle distribution by flow cytometry", "assay_type": "cell-based", "experimental": "as §1"}, "[6]": {"test_system": "SKMG3 cells", "assay": "Cell cycle distribution by flow cytometry", "assay_type": "cell-based, human", "experimental": "as §1"}, "[7]": {"target": "T1, EGFR (Homo sapiens, UniProt P00533, DEL746-750)", "T1 construct": "endogenous in cells; host or cells: HCC827-GR NSCLC cells (MET amplified)", "assay_type": "cell-based", "details": "HCC827-GR cells"}, "[8]": {"test_system": "AKT", "assay": "Radiation-induced AKT activation", "assay_type": "cell-based"}, "[9]": {"test_system": "NCI-H2110", "assay": "Lung cancer cell line viability screen", "assay_type": "cell-based", "details": "NCI-H2110, SCLC; read-out: NGI-1 (IC50)", "experimental": "(§2) NGI-1 activity was screened in 94 lung cancer cell lines at the Center for Molecular Therapeutics at the Massachusetts General Hospital Center for Cancer Research with previously described methods (Garnett et al., Nature, 483(7391):570-5 (2012)). Briefly, cells were treated in 384-well microplates using 9 serial NGI-1 dilutions, returned to an incubator for 96 hours, then stained with 55 μg/ml resazurin (Sigma) prepared in Glutathione-free media for 4 hours. Fluorescent signal intensity was quantified with a plate reader at excitation and emission wavelengths of 535/595 nm to determine viability. Viability ratio across the 9 doses were fitted to determine the half maximal inhibitory concentration (IC50)."}, "[10]": {"test_system": "RERF-LC-Sq1", "assay": "Lung cancer cell line viability screen", "assay_type": "cell-based", "details": "RERF-LC-Sq1, NSCLC; read-out: NGI-1 (IC50)", "experimental": "as §2"}, "[11]": {"test_system": "RERF-LC-MS", "assay": "Lung cancer cell line viability screen", "assay_type": "cell-based", "details": "NSCLC, read-out: NGI-1 (IC50)", "experimental": "as §2"}, "[12]": {"test_system": "A-427", "assay": "Lung cancer cell line viability screen", "assay_type": "cell-based", "details": "Homo sapiens; A-427, NSCLC; read-out: NGI-1 (IC50)", "experimental": "as §2"}, "[13]": {"test_system": "PC-3 [JPC-3]", "assay": "Lung cancer cell line viability screen", "assay_type": "cell-based", "details": "NSCLC, EGFR 747-749 del, read-out: NGI-1 (IC50)", "experimental": "as §2"}, "[14]": {"test_system": "BEN", "assay": "Lung cancer cell line viability screen", "assay_type": "cell-based", "details": "NSCLC, read-out: NGI-1 (IC50)", "experimental": "as §2"}, "[15]": {"test_system": "EMC-BAC-1", "assay": "Lung cancer cell line viability screen", "assay_type": "cell-based", "details": "EMC-BAC-1, NSCLC, ErBB3 Y523C; read-out: NGI-1 (IC50)", "experimental": "as §2"}, "[16]": {"test_system": "IST-SL2", "assay": "Lung cancer cell line viability screen", "assay_type": "cell-based", "details": "IST-SL2, SCLC; 96 hours; read-out: NGI-1 (IC50)", "experimental": "as §2"}, "[17]": {"test_system": "Calu-3", "assay": "Lung cancer cell line viability screen", "assay_type": "cell-based", "details": "Homo sapiens; Calu-3, NSCLC, ErbB2 amplified; read-out: NGI-1 (IC50)", "experimental": "as §2"}, "[18]": {"test_system": "LC-1F", "assay": "Lung cancer cell line viability screen", "assay_type": "cell-based", "details": "NSCLC, read-out: NGI-1 (IC50)", "experimental": "as §2"}, "[19]": {"test_system": "NCI-H1838", "assay": "Lung cancer cell line viability screen", "assay_type": "cell-based", "details": "Homo sapiens; NCI-H1838, NSCLC, EGFR amplified; read-out: NGI-1 (IC50)", "experimental": "as §2"}}}
{"compound": "Cc1cnc(NC(=O)c2cc(S(=O)(=O)N(C)C)ccc2N2CCCC2)s1", "note": "[NGI-1, 5-(dimethylsulfamoyl)-N-(5-methyl-1,3-thiazol-2-yl)-2-(pyrrolidin-1-yl)benzamide]", "values": [{"measurement": "increase of phospho-γH2AX foci formation compared to radiation alone (factor)", "setting": "[1]", "result": 1.2}, {"measurement": "CD8-EGFR phosphorylation (phospho-Y1068, phospho-Y845)", "setting": "[2]", "result": "resistant"}, {"measurement": "G1 arrest", "setting": "[3]; 48 hours of NGI-1", "result": "no arrest"}, {"measurement": "G1 arrest six hours after 4 Gy", "setting": "[3]; NGI-1 + 4 Gy", "result": "not for either the T98G or U251 cells"}, {"measurement": "cells in G1 (G1 arrest)", "setting": "[4]; 48 hours of 10 uM NGI-1, printed 64% vs. 72%", "result": 64, "unit": "%"}, {"measurement": "G1 arrest six hours after 4 Gy", "setting": "[4]; NGI-1 + 4 Gy", "result": "not for either the T98G or U251 cells"}, {"measurement": "cells in G1 (G1 arrest)", "setting": "[5]; 48 hours of 10 uM NGI-1, control 75%", "result": 83, "unit": "%"}, {"measurement": "cells in G1 six hours after 4 Gy", "setting": "[5]; NGI-1 + 4 Gy, 66% without NGI-1", "result": 77, "unit": "%"}, {"measurement": "cells in G1 (G1 arrest)", "setting": "[6]; SKMG3, 48 hours of 10 uM NGI-1, control 69%", "result": 78, "unit": "%"}, {"measurement": "cells in G1 six hours after 4 Gy", "setting": "[6]; SKMG-3, NGI-1 + 4 Gy, 56% without NGI-1", "result": 72, "unit": "%"}, {"measurement": "EGFR phosphorylation", "setting": "[7]", "result": "significantly reduced"}, {"measurement": "radiation-induced activation of AKT", "setting": "[8]; CD8-EGFR expressing SKMG3 cells", "result": "not in the CD8-EGFR expressing SKMG3 cells"}, {"measurement": "AKT activation", "setting": "[8]; T98G cells", "result": "does not block AKT activation"}, {"measurement": "radiation-induced activation of AKT", "setting": "[8]; parental SKMG3 cells", "result": "blocks"}, {"measurement": "IC50", "setting": "[9]", "result": 9.01, "unit": "µM"}, {"measurement": "IC50", "setting": "[10]", "result": 7.39, "unit": "µM"}, {"measurement": "IC50", "setting": "[11]", "result": 8.07, "unit": "µM"}, {"measurement": "IC50", "setting": "[12]", "result": 4.92, "unit": "µM"}, {"measurement": "IC50", "setting": "[13]", "result": 4.9, "unit": "µM"}, {"measurement": "IC50", "setting": "[14]", "result": 9.72, "unit": "µM"}, {"measurement": "IC50", "setting": "[15]", "result": 4.1, "unit": "µM"}, {"measurement": "IC50", "setting": "[16]", "result": 2.63, "unit": "µM"}, {"measurement": "IC50", "setting": "[17]", "result": 8.71, "unit": "µM"}, {"measurement": "IC50", "setting": "[18]", "result": 7.94, "unit": "µM"}, {"measurement": "IC50", "setting": "[19]", "result": 4.29, "unit": "µM"}]}
